pIC50, pKi: −log10 of the molar value. “And” between values parts separate entries of the source, which are not always exact repeats. Equal values may be shown once.
Legend:
[1] = target: T1, Adenosine receptor A1 (Rattus norvegicus, UniProt P25099); assay: Radioligand Binding Assays
T1 sequence (P25099 whole entry): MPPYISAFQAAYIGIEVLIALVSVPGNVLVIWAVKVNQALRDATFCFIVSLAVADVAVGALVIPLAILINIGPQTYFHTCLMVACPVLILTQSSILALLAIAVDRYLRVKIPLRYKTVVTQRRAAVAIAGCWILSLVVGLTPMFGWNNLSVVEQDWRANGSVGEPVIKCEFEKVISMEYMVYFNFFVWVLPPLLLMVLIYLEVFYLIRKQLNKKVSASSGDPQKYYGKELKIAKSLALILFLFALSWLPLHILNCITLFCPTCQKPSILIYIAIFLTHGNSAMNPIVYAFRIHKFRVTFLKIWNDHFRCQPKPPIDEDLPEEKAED
Description: (§1) For the A2a receptor binding study, the incubation contained 10 mg of the original tissue weight of the striatal membranes, 4 nM [3H]NECA, 50 nM CPA, 10 mM MgCl2, 0.2 units/mL adenosine deaminase, the test compound and 1% DMSO. For the A1 receptor binding study, the incubations contained 5 mg of the original tissue weight of the whole brain membranes, 0.1 nM [3H]DPCPX, 0.2 units/mL adenosine deaminase, the test compound and 1% DMSO. The incubations were vortexed and incubated for 60 min at 25 °C in a shaking waterbath. Half an hour after incubation was started, the incubations were vortexed again. The incubations were terminated via filtration. The tubes were washed twice with 4 mL ice-cold Tris buffer and the filters were washed once more with 4mL ice-cold Tris buffer. The damp filters were place in scintillation vials and 4 mL of scintillation fluid was added. The vials were shaken and incubated for two hours before being counted.

[2] = target: Adenosine receptor A2a (Rattus norvegicus, UniProt P30543); assay: Radioligand Binding Assays
Sequence of Adenosine receptor A2a (P30543 whole entry): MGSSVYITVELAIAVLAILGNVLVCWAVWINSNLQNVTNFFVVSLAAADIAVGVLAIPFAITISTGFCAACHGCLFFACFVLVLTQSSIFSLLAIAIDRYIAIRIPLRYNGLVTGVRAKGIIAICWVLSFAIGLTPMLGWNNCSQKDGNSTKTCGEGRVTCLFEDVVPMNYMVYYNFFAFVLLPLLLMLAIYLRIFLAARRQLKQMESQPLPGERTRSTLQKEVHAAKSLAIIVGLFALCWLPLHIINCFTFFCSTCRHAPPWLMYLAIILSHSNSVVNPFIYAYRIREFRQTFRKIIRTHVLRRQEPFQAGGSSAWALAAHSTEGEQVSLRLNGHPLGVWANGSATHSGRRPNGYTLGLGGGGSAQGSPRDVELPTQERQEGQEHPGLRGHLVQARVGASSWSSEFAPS
Description: as §1

[3] = target: T2, Amine oxidase [flavin-containing] B (Homo sapiens, UniProt P27338); assay: MAO Inhibition Assays; conditions: pH 7.4
T2 sequence (P27338 whole entry): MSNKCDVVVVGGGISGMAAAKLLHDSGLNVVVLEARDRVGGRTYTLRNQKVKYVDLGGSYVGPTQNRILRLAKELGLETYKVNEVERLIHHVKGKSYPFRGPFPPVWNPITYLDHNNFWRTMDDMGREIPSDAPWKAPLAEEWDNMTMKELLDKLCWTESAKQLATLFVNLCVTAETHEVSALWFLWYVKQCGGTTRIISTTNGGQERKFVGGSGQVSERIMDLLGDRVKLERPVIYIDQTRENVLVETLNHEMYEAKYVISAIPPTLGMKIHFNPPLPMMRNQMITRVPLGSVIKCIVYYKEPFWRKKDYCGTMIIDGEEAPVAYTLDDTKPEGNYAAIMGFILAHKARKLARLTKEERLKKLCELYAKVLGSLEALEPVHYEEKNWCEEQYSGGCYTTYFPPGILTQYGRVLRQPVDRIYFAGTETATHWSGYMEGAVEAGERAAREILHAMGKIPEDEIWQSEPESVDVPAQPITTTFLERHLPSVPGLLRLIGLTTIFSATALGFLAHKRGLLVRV
Description: The enzymatic reactions were carried out at pH 7.4 (K2HPO4/KH2PO4 100 mM, made isotonic with KCl) to a final volume of 500 µL. The reactions contained the different inhibitor concentrations spanning at least 3 orders of magnitude and the MAO-A/B mixed substrate kynuramine (45 µM for MAO-A and 30 µM for MAO-B). DMSO, as co-solvent (4%) was added to each reaction. The enzyme reactions were initiated with the addition of MAO-A or MAO-B (0.0075 mg protein/mL) and incubated for 20 min at 37 °C in a waterbath. After termination with the additionof 400 µL NaOH (2 N) and 1000 µL water, the concentrations of the MAO generated 4-hydroxyquinoline were measured by fluorescence spectrophotometry (excitation = […]; emission = […]).

| SMILES | pKi [1] | pKi [2] | pIC50 [3] |
| --- | --- | --- | --- |
| O=C1NC(=O)c2cc(SCc3ccc(F)cc3)ccc21 | 4.44 and 5.20 | 4.90 | – |
| O=C1NC(=O)c2cc(SCc3ccccc3)ccc21 | 6.23 and 6.26 | 6.01 | – |
| O=C1Nc2ccc(OCc3ccccc3)cc2C1=O [5-Benzyloxyisatin] | 5.01 | – | – |
| COc1ccc(CSc2ccc3c(c2)C(=O)NC3=O)cc1 | 6.43 and 5.76 | – | – |
| O=C1NC(=O)c2cc(OCc3ccccc3)ccc21 | 5.33 | – | – |
| O=C1NC(=O)c2cc(SCCc3ccccc3)ccc21 | 5.73 and 6.19 | 4.77 | 5.41 |
| O=C1NC(=O)c2cc(SCc3ccc(Cl)cc3)ccc21 | – | – | 6.34 |
| O=C1NC(=O)c2cc(SCc3ccc(Br)cc3)ccc21 | 6.17 | – | – |

Reference: BindingDB's records for doi:10.1016/j.bioorg.2015.02.005 (North-West University, 2015)
